Results as given in PMC3759666, “Post-translational modification and conformational state of Heat Shock Protein 90 differentially affect binding of chemically diverse small molecule inhibitors” (Oncotarget, 2013).

How the values were obtained:
yeast Hsp90 = biological target: T1, yeast Hsp90 (Saccharomyces cerevisiae, UniProt P02829); test: DMS cross-linking of N domain dimers; p23 binding by fluorescence anisotropy; format: biochemical
T1 construct: gene HSP82; purified yeast Hsp90

yeast Hsp90 (Hsp82) [1] = biological target: T2, yeast Hsp90 (Hsp82) (Saccharomyces cerevisiae, UniProt P02829); test: BODIPY-GA anisotropy/displacement; GA-bead capture from yeast lysate; format: binding
T2 construct: wild-type NMC; coilNMC also measured
T2 sequence (P02829 whole entry): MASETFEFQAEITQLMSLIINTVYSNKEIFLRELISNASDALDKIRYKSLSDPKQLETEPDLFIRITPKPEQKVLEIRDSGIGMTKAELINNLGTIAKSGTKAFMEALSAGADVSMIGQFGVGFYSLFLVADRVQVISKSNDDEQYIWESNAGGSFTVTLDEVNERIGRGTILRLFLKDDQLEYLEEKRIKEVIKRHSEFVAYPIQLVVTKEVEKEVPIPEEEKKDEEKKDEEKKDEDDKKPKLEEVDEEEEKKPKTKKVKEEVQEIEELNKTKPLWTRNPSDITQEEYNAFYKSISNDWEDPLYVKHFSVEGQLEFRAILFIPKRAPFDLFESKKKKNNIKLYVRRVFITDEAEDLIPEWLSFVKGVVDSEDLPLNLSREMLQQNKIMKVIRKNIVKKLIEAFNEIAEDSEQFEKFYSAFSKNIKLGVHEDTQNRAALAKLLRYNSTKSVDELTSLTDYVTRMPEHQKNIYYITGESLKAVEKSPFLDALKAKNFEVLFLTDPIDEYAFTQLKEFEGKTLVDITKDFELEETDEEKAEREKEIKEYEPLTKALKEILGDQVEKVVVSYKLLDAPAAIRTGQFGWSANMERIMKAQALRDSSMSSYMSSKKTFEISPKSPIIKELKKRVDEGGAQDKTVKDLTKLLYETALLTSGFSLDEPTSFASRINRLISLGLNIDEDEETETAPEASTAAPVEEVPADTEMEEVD

Hsp90β = biological target: T3, Hsp90β (Homo sapiens, UniProt P08238)
T3 construct: gene HSP90AB1
T3 sequence (P08238 2-724): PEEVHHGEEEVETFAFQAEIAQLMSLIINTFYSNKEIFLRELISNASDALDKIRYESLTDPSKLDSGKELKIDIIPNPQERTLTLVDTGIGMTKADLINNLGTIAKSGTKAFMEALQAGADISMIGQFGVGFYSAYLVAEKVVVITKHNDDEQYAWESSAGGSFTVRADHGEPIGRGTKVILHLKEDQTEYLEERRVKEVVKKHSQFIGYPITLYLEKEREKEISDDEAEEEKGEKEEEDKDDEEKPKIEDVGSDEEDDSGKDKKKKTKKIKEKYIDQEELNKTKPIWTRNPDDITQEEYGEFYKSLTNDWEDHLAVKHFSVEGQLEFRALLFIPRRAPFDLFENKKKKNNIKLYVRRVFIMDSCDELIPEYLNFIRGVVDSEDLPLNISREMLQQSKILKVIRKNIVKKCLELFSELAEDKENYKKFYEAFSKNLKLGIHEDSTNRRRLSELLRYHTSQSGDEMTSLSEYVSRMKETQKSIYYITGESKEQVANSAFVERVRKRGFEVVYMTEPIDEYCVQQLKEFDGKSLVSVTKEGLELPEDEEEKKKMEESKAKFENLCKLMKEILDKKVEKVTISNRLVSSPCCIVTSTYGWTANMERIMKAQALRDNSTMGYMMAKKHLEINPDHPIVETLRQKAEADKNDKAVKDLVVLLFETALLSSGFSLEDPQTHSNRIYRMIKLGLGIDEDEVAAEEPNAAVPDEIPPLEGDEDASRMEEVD

yeast Hsp90 (Hsp82) [2] = biological target: T2, yeast Hsp90 (Hsp82); test: PU-bead capture from yeast lysate; format: cell-based

T1 sequence (P02829 whole entry): as the sequence (P02829 whole entry) above

Nc1ncnc2c1ncn2[C@@H]1O[C@H](CO[P@](=O)(O)O[P@](=O)(O)NP(=O)(O)O)[C@@H](O)[C@H]1O [AMP-PNP]
DMS cross-linking of N domain dimers; p23 binding by fluorescence anisotropy (yeast Hsp90): Only AMP-PNP promoted significant N domain dimerization (Figure 2F).

COC1=C2C[C@@H](C)C[C@H](OC)[C@H](O)[C@@H](C)/C=C(\C)[C@H](OC(N)=O)[C@@H](OC)/C=C\C=C(/C)C(=O)NC(=CC1=O)C2=O [GA, geldanamycin]
BODIPY-GA anisotropy/displacement; GA-bead capture from yeast lysate (yeast Hsp90 (Hsp82) [1]): Coiled-coil yeast Hsp90 (coilNMC) has a similar affinity for GA as wild-type Hsp90 (NMC)
GA-agarose capture of Flag-Hsp90β from 293-H cell lysate (Hsp90β): GA-beads bound the non-phosphorylatable mutants (Hsp90α-Y197F and Hsp90β-Y192F) similarly to wild-type Hsp90

CC(C)NCCCn1c(Sc2cc3c(cc2I)OCO3)nc2c(N)ncnc21 [PU, PU-H71]
PU-bead capture from yeast lysate (yeast Hsp90 (Hsp82) [2]): both GA- and PU-beads efficiently isolated coiled-coil Hsp90 from yeast lysates, compared to wild-type Hsp90
